In general, LC50 refers to the concentration that kills 50% of the test population.

From patent US5182295A, “Insecticidal benzofuran derivatives” (Roussel Uclaf, priority 1990, dated 1993) come the findings set out here.

Holding throughout (assay type): in vivo
One assay has as its system Tetranychus Urticae. Kind of assay: Acaricide study on Tetranychus Urticae. The conditions noted are these: 72 h, read-out: LC50, Tetranychus. The protocol: Bean plants were used comprising 2 leaves infested with 30 females of Tetranychus Urticae per leaf and put under an aerated hood under a lighted ceiling which was constantly on. The plants were treated with a Fisher gun with 4 ml of toxic solution per plant of a mixture with an equal volume of water and acetone. After leaving to dry for half an hour the infestation was proceeded with and mortality checks were carried out at the end of 3 days. The LC50 dose was determined and the results are set out in the table below, taking account of the following values: […]

The subject of the next assay is Plasmopara viticola. Kind of assay: Fungicide activity: tests on Plasmopara viticola (vine plants, leaf spray). The conditions noted are these: 100 ppm of active material, relative to non-treated control; for % of effectiveness on plasmopara viticola, Grenache vine: ten days after contamination. The protocol:
Young vine plants from cuttings (Grenache N variety, clone 70) were cultivated in a greenhouse (daytime temperature: 30° C., night-time temperature: 25° C.) on an earth/compost/sand mixture, (1/3-1/3-1/3). Two days before the test, the plants were moved into a culture chamber with the same temperature conditions and humidity 60% in the day, 80% at night. The product was dissolved in "matrix A" at a concentration of 100 ppm just before use. The treatment took place by spraying the solution on the leaves until saturation Contamination was carried out with a suspension of zoospores of Plasmopara viticola taken immediately before the test using 50,000 zoospores per ml. Drops of suspension (20 micro-liters) were deposited on the abaxial surface of the leaves. The plants were then kept for 24 hours in an atmosphere saturated with water-vapour. Then, the atmosphere was returned to the humidity of the culture chamber (60% in the day, 80% at night). The reading was taken ten days after contamination by measuring the development of clusters of sporangiophores on the abaxial surface of the leaves. The effectiveness of the product was calculated relative to a non-treated control. The same type of test was carried out on a Chardonnay vine.
The results obtained in % of effectiveness on plasmopara viticola at 100 ppm of active material were as follows: […]

The test system of assay [1] is Spodoptera Littoralis (L3 stage larvae). The experiment in a line: whole plant or invertebrate. The conditions noted are these: 168 h, read-out: LC50, Spodoptera. The protocol:
L3 stage SPODOPTERA LITTORALIS larvae were used and the operation was carried out at 22° C. at relative humidity conditions of 50%. Petri dishes were used containing a damp circular piece of filter paper and in each dish, two bean plant leaves were placed and treated with hydroacetonic solution (50-50) containing the product under test. The dead larvae were counted at the end of 7 days and the concentration LC50 were expressed in ppm.

The subject of another assay is Musca Domestica (Fly). The experiment in a line: Insecticide activity: lethal effect on Musca Domestica (topical application). The conditions noted are these: 6-day-old female flies, topical application of acetone solution on dorsal thorax, 22° C. The protocol: 6-day-old female flies weighing 18 to 20 mg were used and the operation was carried out at 22° C. at relative humidity conditions of 50%. The products were administered by topical application of an acetone solution of 1 g/l on the dorsal thorax of the insects. The LC50 dose was determined and was expressed in ppm.

The test system of another assay is Aphis Cracivora. Kind of assay: Insecticide activity: activity on Aphis Cracivora. The conditions noted are these: female apter on sprayed broad bean leaves, 24 hours. The protocol: 2 ml of water acetone solution (50/50) was sprayed on broad bean leaves (vicia fabae) until the leaves were running with solution. After drying, 15 female apter of Aphis cracivora were deposited on the leaves and the mixture was kept on the damp filter paper inside a Petri dish. 24 hours after the start of contact, the number of dead insects was determined and the LC50 dose expressed in ppm were determined.

[2] abbreviates: females on treated bean plants, 3 days.
[3] abbreviates: L3 larvae, contact and ingestion, treated bean leaves, 7 days, 22° C.

Values after ≈ are worked out from the molar mass of the structure shown. Where two headings read alike, the source gives them in different places.

`CO/C=C(\C(=O)OC)c1cccc2cc(-c3ccc(OC)cc3)oc12` [1 (Z)]: the LC50 with Tetranychus Urticae (setting [2]) is under 250 µg/mL; in assay [1] (setting [3]), 250 to 1000 µg/mL (≈ 739 to 2960 µM). Besides, the “% of effectiveness on plasmopara viticola, Grenache vine” value (from here on “% of effectiveness … Grenache vine”) in the assay on Plasmopara viticola came out at 100%.
`CO/C=C(/C(=O)OC)c1cccc2cc(-c3ccc4c(c3)OCO4)oc12` [17 (E), Methyl α[(E)-methoxymethylene1-2-(3,4-methylenedioxy)-phenyl-7-benzofuran acetate]: the LC50 (in assay [1] (setting [3]); with Musca Domestica (Fly)) was under 250 µg/mL in each case.
For `CO/C=C(/C(=O)OC)c1cccc2cc(-c3ccc(Cl)cc3)oc12` [12 (E)], the 50% lethal concentration (LC50) in the assay on Tetranychus Urticae (setting [2]) is under 250 µg/mL. In the assay with Plasmopara viticola, the “% of effectiveness on plasmopara viticola, Chardonnay vine” value (from here on “% of effectiveness … Chardonnay vine”) was 100% and the “% of effectiveness … Grenache vine” value was 100%. Moreover, in the assay on Musca Domestica (Fly), the LC50 was under 250 µg/mL.
Consider `CO/C=C(/C(=O)OC)c1cccc2cc(-c3cccc(OC)c3)oc12` [2 (E)], for which, in the assay with Plasmopara viticola, the “% of effectiveness … Chardonnay vine” value came out at 100% and the “% of effectiveness … Grenache vine” value turned out to be 100%.
`CO/C=C(/C(=O)OC)c1cccc2cc(-c3ccc(OC)cc3)oc12` [Example 1 (E), Methyl α-[(E)-methoxymethylene]-2-(4-methoxy-phenyl)-7-benzofuranacetate]: the 50% lethal concentration (LC50) with Tetranychus Urticae was under 250 µg/mL; in assay [1] it was 250 to 1000 µg/mL (≈ 739 to 2960 µM). Moreover, the “% of effectiveness … Grenache vine” value in the assay on Plasmopara viticola stood at 90%.
As for `CO/C=C(/C(=O)OC)c1cccc2cc(-c3ccc(Br)c(C(F)(F)F)c3)oc12` [14 (E), Methyl α[(E)methoxymethylene1-2-4-bromo-3-(trifluoromethyl)-phenyl]benzofuran acetate], the LC50 in the assay with Tetranychus Urticae (setting [2]) was under 250 µg/mL; in assay [1] (setting [3]), 250 to 1000 µg/mL; in the assay on Musca Domestica (Fly), under 250 µg/mL.
With `CO/C=C(/C(=O)OC)c1cccc2cc(-c3ccc(Cl)c(OC)c3)oc12` [15 (E)], the 50% lethal concentration (LC50) in the assay with Tetranychus Urticae (setting [2]) was 250 to 1000 µg/mL (≈ 671 to 2680 µM); in assay [1] (setting [3]) it was 250 to 1000 µg/mL (≈ 671 to 2680 µM); in the assay with Musca Domestica (Fly) it was under 250 µg/mL; in the assay on Aphis Cracivora, under 250 µg/mL.
Consider `CO/C=C(/C(=O)OC)c1cccc2cc(-c3cccc(Cl)c3)oc12` [Example 11 (E)], for which, in the assay on Plasmopara viticola, the “% of effectiveness … Chardonnay vine” value is given as 100% and the “% of effectiveness … Grenache vine” value worked out at 100%. Moreover, the LC50 in assay [1] (setting [3]) was in the range of 250 to 1000 µg/mL (≈ 729 to 2920 µM).
In the case of `CO/C=C(/C(=O)OC)c1cccc2cc(-c3ccccc3Cl)oc12` [10 (E)], in the assay on Plasmopara viticola, the “% of effectiveness … Chardonnay vine” value was found to be 90% and the “% of effectiveness … Grenache vine” value worked out at 100%.
As to `CO/C=C(/C(=O)OC)c1cccc2cc(-c3csc(-c4ccc(OC(F)(F)F)cc4)n3)oc12` [19 (E), Methyl α[(E)-methoxymethylene]-2-[2-[4-(trifluoromethyxy)-pehny]-4-thiazolyl]-7-benzofuran acette], the 50% lethal concentration (LC50) in assay [1] (setting [3]) was under 250 µg/mL.
For `CO/C=C(/C(=O)OC)c1cccc2cc(-c3cccc(Oc4ccccc4)c3)oc12` [24 (E), Methyl α-[(E)-methoxymethylene]-2-(3-phenoxyphenyl) -7-benzofuran acetate], the LC50 in the assay with Musca Domestica (Fly) was under 250 µg/mL.
On to `CO/C=C(/C(=O)OC)c1cccc2cc(-c3ccccc3)oc12` [3 (E)], for which the LC50 in assay [1] (setting [3]) lay within 250 to 1000 µg/mL (≈ 811 to 3240 µM).
On to `CO/C=C(/C(=O)OC)c1cccc2cc(-c3csc(C(C)C)n3)oc12` [16 (E), Methyl α-(E)methoxymethylene1-7-[2-[4-(2-isopropylthiazolyl)-benzofuranyl]-acetate], for which the LC50 in the assay on Tetranychus Urticae (setting [2]) was under 250 µg/mL.
`CCCCc1cc2cccc(/C(=C\OC)C(=O)OC)c2o1` [18 (E), Methyl α[(E)-methoxymethylene1-2-butyl-7-benzofuran acetate]: the LC50 in the assay with Tetranychus Urticae (setting [2]) and in the assay on Aphis Cracivora was under 250 µg/mL in each case.
`CO/C=C(/C(=O)OC)c1cccc2cc(-c3ccc(Oc4ccccc4)cc3)oc12` [25 (E), Methyl α-[(E)-methoxymethylene]-2-(4-phenoxyphenyl) -7-benzofuran acetate]: the LC50 with Musca Domestica (Fly) is under 250 µg/mL.
Consider `CO/C=C(\C(=O)OC)c1cccc2cc(-c3ccccc3)oc12` [3 (Z)], for which the 50% lethal concentration (LC50) in assay [1] (setting [3]) is 250 to 1000 µg/mL (≈ 811 to 3240 µM).
